Three compounds from patent US9375411B2, “Uses and methods for the treatment of liver diseases or conditions” (Verlyx Pharma Inc., priority 2012, dated 2016) can be followed below.

For orientation: Cmax means the highest concentration seen after dosing. Usually MRT stands for the average time that molecules of a dose stay in the body. Usually Tmax stands for the time at which the peak concentration occurs. Broadly, the t½ is how long it takes for the measured level to halve.

A short description of data set [1]: Oral bioavailability and biodistribution of pentamidine salts. The following applies: mice; for Tissue Concentration Kidney / Tissue Concentration Liver / Tissue Concentration Lung / Tissue Concentration Pancreas: 24 hours after PO 200 mg/kg; for Tissue Concentration Kidney / Tissue Concentration Liver / Tissue Concentration Lung / Tissue Concentration Pancreas / AUCINF / Cl/F / Cmax / MRT / Tmax / t½: 200 mg/kg; for F* / AUCINF / Cl/F / Cmax / MRT / Tmax / t½: oral 200 mg/kg; for F*: based on the iv AUC at 5 mg/kg of 19.08; for AUCINF / Cl/F / Cmax / MRT / Tmax / t½: blood. How it is done:
In this experiment, HCl, isethionate and tosylate salts of pentamidine were administered orally to mice and their PK and tissue accumulations were compared.
PK parameters for pentamidine salt following oral administration of 200 mg/kg in mice.
Biodistribution of Pentamidine Salts in mice, 24 hours after PO administration of 200 mg/kg.

Data set [2] concerns GalN/LPS-induced liver injury. Kind of data set: GalN/LPS fulminant liver injury survival study. It is filed as in vivo. The following applies: C57BL/6 mice; IP 30 minutes prior GalN/LPS; PENTAMIDINE 40 mpk, Decamidine 10 mpk. How it is done:
In this experiment, the 8-hour survival rate for C57BL/6 mice is evaluated when treated or not with two different aromatic diamidines (pentamidine isethionate(C5) and decamidine isethionate (C10)). Both compounds were administered intraperitoneally at doses close to their MTD 30 minutes prior a GalN/LPS-induced liver injury.

Where a name gives a salt, the structure may show the parent alone.

Regarding `N=C(N)c1ccc(OCCCCCOc2ccc(C(=N)N)cc2)cc1` [Tosylate salt, pentamidine tosylate], in data set [1] (listed as Penta-Tos), the “Tissue Concentration Kidney” value came to 1.9 µM, the “Tissue Concentration Liver” value was 4.1 µM, the “Tissue Concentration Lung” value amounted to 0.5 µM and the “Tissue Concentration Pancreas” value is 0.5 µM. Also, in data set [1], the “F*” value is reported as 2.3, the AUCINF worked out at 17.8 µM·h, the Cl/F turned out to be 440 mL/min/kg and the highest concentration (Cmax) is 430 nM. Besides, in data set [1], the MRT was found to be 86.0 h, the Tmax was 6.67 h and the t½ stood at 54.9 h.

Compound `N=C(N)c1ccc(OCCCCCCCCCCOc2ccc(C(=N)N)cc2)cc1` [Decamidine, decamidine isethionate] showed an 8-hour survival in data set [2] of 100%.

Consider `N=C(N)c1ccc(OCCCCCOc2ccc(C(=N)N)cc2)cc1` [HCl salt, pentamidine bis-HCl], for which, in data set [1] (listed as Penta-HCL, bis-HCl), the “Tissue Concentration Kidney” value worked out at 156.3 µM, the “Tissue Concentration Liver” value was 224.6 µM, the “Tissue Concentration Lung” value came to 43.4 µM and the “Tissue Concentration Pancreas” value came out at 16.6 µM. Moreover, in data set [1] (bis-HCl), the “F*” value is listed as 20.7, the AUCINF came to 158.1 µM·h, the Cl/F was determined as 85 mL/min/kg and the Cmax came out at 5240 nM. Also, in data set [1] (bis-HCl), the MRT was 136.0 h, the Tmax worked out at 2.67 h and the t½ was determined as 90.8 h.
